Source: paper PMC6028563, “Probing Substituents in the 1- and 3-Position: Tetrahydropyrazino-Annelated Water-Soluble Xanthine Derivatives as Multi-Target Drugs With Potent Adenosine Receptor Antagonistic Activity” (Frontiers in Chemistry, 2018)

What was measured:
[1] = target: T1, recombinant human MAO-A (Homo sapiens, UniProt P21397); assay: Monoamine oxidase assay (Amplex Red), MAO-A; format: biochemical; conditions: for inhibition at 10 µM: at 10,000 nM, read-out: % inhibition at indicated concentration, Human MAO-A; for IC50: n = 3, read-out: IC50 ± SEM, Human MAO-A
T1 construct: purchased Sigma-Aldrich M7316; host or cells: baculovirus-infected insect cells
T1 sequence (P21397 1-527): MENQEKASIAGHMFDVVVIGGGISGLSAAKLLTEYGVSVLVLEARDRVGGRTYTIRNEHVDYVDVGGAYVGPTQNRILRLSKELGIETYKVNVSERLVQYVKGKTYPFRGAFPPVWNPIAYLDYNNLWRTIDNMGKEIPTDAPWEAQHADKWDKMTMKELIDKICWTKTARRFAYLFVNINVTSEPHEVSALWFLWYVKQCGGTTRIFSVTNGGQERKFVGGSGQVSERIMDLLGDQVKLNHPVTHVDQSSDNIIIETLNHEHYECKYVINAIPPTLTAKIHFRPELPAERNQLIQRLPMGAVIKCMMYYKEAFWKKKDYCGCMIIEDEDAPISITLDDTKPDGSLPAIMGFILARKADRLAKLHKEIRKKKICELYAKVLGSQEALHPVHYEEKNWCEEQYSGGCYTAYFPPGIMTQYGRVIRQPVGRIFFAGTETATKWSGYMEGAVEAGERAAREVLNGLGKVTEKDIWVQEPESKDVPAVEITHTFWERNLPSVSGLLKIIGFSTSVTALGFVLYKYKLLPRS
Procedure: (§1) The determination of MAO-A and MAO-B inhibition was performed using commercially available recombinant human MAO-A and MAO-B enzymes expressed in baculovirus-infected insects sells (Sigma-Aldrich, M7316 and M7441) applying the commercially available Amplex® Red monoamine oxidase assay kit (Invitrogen A12214). The assays were performed as previously described. The determination of rat MAO-B inhibition was performed using mitochondrial-enriched fractions from male Sprague Dawley rat livers. […]

[2] = target: T2, rat A1 AR (Rattus norvegicus, UniProt P25099); assay: Radioligand binding assay at rat A1 AR (rat brain cortex) vs. [^3H]CCPA; conditions: rat (r); rat brain cortex; n = 3
T2 construct: A1 ARs of rat brain cortical membrane; from tissue; host or cells: rat brain cortex membranes
T2 sequence (P25099 1-326): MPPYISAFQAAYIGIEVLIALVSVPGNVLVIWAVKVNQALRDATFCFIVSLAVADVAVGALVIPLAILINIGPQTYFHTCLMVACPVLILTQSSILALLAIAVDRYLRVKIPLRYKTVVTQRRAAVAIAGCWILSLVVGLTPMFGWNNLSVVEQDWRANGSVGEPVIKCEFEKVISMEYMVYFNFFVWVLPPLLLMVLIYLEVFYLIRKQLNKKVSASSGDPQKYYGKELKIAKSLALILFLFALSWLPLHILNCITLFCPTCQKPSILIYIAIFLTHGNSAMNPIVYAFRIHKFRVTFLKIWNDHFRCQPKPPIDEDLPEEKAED
Procedure: (§2) Membrane preparations and radioligand binding assays at rat A1 (rat brain cortex) and rat A2A ARs (rat brain striatum) were performed as previously described (Ozola et al., [2003]; Alnouri et al., [2015]). For assays at human A1, A2A, A2B, and A3 ARs, CHO cell membranes expressing one of the human AR subtypes were used as previously reported (Klotz et al., [1998]; Alnouri et al., [2015]; De Filippo et al., [2016]).
(§3) The synthesized tetrahydropyrazino[2,1-f ]purinediones 13–20 were evaluated in radioligand binding assays for their affinity to A1 ARs of rat brain cortical membrane and to A2A ARs of rat brain striatal membrane preparations. Selected compounds were further investigated for their affinity to human A1 and A2A ARs recombinantly expressed in Chinese hamster ovary (CHO) cells. All compounds were additionally investigated for their affinity to human A2B and A3 ARs recombinantly expressed in CHO cells to determine their AR subtype selectivity. […] It is well known that all xanthine derivatives lacking a ribose moiety, including tricyclic compounds, can only block ARs, but never act as AR agonists; therefore, additional functional studies were not required. […] Potent MAO-B inhibitors were additionally investigated for inhibition of human MAO-A to assess their selectivity. Results are presented in Tables 1–6, and data of standard ligands are included for comparison.

[3] = target: T3, human A2B AR (Homo sapiens, UniProt P29275); assay: Radioligand binding assay at human A2B AR vs. [^3H]PSB-603; conditions: for Ki: CHO cell membranes, n = 2 (n = 3 where marked a), read-out: Ki ± SEM, A2B vs. [^3H]PSB-603; for inhibition at 1 µM: at 1,000 nM, read-out: % inhibition of radioligand binding at indicated concentration, A2B vs. [^3H]PSB-603
T3 construct: expressed in transfected cells; host or cells: CHO cells
T3 sequence (P29275 1-332): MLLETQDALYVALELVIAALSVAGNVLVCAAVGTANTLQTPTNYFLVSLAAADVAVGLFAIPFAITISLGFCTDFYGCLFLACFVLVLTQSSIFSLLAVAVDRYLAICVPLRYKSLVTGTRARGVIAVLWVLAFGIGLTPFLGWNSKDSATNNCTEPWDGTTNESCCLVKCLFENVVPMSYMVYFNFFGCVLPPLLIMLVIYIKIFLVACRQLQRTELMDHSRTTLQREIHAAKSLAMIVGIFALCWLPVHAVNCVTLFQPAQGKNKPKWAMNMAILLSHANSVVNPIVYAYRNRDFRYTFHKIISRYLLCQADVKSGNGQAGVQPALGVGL
Procedure: as §2, §3

[4] = target: T4, human A1 AR (Homo sapiens, UniProt P30542); assay: Radioligand binding assay at human A1 AR vs. [^3H]CCPA; conditions: human (h); CHO cell membranes; n = 3
T4 construct: expressed in transfected cells; host or cells: CHO cells
T4 sequence (P30542 1-326): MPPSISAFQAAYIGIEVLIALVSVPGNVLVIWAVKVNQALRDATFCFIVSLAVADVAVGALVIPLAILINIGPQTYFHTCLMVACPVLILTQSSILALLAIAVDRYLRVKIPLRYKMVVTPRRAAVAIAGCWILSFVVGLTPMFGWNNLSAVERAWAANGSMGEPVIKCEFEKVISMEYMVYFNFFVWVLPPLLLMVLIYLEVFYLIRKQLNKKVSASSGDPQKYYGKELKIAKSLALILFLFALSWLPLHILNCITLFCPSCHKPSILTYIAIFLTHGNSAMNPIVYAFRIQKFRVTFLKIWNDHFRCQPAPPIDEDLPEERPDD
Procedure: as §2, §3

[5] = target: T5, rat A2A AR (Rattus norvegicus, UniProt P30543); assay: Radioligand binding assay at rat A2A AR (rat brain striatum) vs. [^3H]MSX-2; conditions: rat (r); for Ki: rat brain striatum, n = 3, read-out: Ki ± SEM, A2A vs. [^3H]MSX-2
T5 construct: A2A ARs of rat brain striatal membrane preparations; from tissue; host or cells: rat brain striatum membranes
Procedure: as §2, §3

[6] = target: T6, recombinant human MAO-B (Homo sapiens, UniProt P27338); assay: Monoamine oxidase assay (Amplex Red), MAO-B; format: biochemical; conditions: for inhibition at 10 µM: at 10,000 nM (10 μM), read-out: % inhibition at indicated concentration, Human MAO-B; for IC50: n = 3, read-out: IC50 ± SEM, Human MAO-B
T6 construct: purchased Sigma-Aldrich M7441; host or cells: baculovirus-infected insect cells
T6 sequence (P27338 1-520): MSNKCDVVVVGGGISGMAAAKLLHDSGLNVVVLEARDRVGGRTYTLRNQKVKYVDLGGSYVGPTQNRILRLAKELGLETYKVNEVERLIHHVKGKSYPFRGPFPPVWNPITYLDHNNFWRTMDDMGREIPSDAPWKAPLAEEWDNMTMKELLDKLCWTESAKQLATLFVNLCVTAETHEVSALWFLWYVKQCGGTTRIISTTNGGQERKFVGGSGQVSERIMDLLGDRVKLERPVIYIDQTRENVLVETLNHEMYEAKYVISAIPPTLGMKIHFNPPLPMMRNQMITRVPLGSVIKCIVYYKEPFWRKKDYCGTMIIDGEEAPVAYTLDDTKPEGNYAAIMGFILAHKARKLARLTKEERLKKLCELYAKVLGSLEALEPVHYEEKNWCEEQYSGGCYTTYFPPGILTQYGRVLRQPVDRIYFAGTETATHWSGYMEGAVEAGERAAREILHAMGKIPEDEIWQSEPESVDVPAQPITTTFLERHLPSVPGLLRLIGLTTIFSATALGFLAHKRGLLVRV
Procedure: as §1

[7] = target: T7, human A3 AR (Homo sapiens, UniProt P0DMS8); assay: Radioligand binding assay at human A3 AR vs. [^3H]PSB-11; conditions: for Ki: CHO cell membranes, n = 2 (n = 3 where marked a), read-out: Ki ± SEM, A3 vs. [^3H]PSB-11
T7 construct: expressed in transfected cells; host or cells: CHO cells
T7 sequence (P0DMS8 1-318): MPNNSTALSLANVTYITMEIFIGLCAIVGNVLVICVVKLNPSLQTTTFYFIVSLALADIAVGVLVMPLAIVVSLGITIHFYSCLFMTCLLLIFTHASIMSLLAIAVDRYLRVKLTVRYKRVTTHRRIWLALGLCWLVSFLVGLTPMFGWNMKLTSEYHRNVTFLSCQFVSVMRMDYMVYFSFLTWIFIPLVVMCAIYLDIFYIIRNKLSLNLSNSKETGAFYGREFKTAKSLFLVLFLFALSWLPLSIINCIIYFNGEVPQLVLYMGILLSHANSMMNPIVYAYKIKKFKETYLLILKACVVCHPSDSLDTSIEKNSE
Procedure: as §2, §3

[8] = target: T8, human A2A AR (Homo sapiens, UniProt P29274); assay: Radioligand binding assay at human A2A AR vs. [^3H]MSX-2; conditions: CHO cell membranes, n = 3, read-out: Ki ± SEM, A2A vs. [^3H]MSX-2
T8 construct: expressed in transfected cells; host or cells: CHO cells
Procedure: as §2, §3

T5 sequence (P30543 whole entry): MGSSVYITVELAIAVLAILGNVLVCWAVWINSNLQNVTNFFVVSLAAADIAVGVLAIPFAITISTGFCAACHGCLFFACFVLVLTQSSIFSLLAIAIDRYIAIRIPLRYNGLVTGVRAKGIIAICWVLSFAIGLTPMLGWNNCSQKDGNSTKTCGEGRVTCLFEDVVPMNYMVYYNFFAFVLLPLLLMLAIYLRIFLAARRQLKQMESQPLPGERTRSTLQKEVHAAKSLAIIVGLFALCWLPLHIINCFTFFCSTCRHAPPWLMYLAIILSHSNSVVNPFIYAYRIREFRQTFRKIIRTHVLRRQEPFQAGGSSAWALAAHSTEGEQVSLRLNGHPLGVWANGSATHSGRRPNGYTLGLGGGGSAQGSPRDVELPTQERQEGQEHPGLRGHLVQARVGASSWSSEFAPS
T8 sequence (P29274 whole entry): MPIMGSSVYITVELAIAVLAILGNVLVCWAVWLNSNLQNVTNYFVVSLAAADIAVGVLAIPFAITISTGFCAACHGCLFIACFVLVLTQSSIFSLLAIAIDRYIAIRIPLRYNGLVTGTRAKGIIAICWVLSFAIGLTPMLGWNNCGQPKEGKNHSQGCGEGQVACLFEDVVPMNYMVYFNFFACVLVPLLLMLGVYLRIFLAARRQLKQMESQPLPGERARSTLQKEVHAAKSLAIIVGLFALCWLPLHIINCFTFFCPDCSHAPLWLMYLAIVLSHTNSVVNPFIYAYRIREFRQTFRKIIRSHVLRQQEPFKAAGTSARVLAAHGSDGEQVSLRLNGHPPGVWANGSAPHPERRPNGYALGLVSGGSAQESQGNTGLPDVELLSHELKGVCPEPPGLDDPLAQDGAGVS

| inhibition at 10 µM [1] [%] | Ki [2] [µM] | Ki [3] [µM] | inhibition at 1 µM [3] [%] | Ki [4] [µM] | % inhibition of radioligand binding at indicated concentration, A2A vs. [^3H]MSX-2 ([5]; at 1,000 nM) [%] | Ki [5] [µM] | inhibition at 10 µM [6] [%] | Ki [7] [µM] | IC50 [1] [µM] | IC50 [6] [µM] | Ki [8] [µM] | inhibition at 1 µM ([7]; at 1,000 nM, read-out: % inhibition of radioligand binding at indicated concentration, A3 vs. [^3H]PSB-11) [%] | Structure (SMILES) |
| --- | --- | --- | --- | --- | --- | --- | --- | --- | --- | --- | --- | --- | --- |
| 6 | 0.588 ± 0.028 | > 1 | 32 | 0.129 ± 0.022 | 40 | > 1 | 67 | 7.18 |  |  |  |  | CCn1c(=O)c2c(nc3n2CCN(Cc2ccc(Cl)c(C(F)(F)F)c2)C3)n(CC)c1=O [Compound 15p, 8-(4-chloro-3-(trifluoromethyl)benzyl)-1,3-diethyl-6,7,8,9-tetrahydropyrazino[2,1-f]purine-2,4(1H,3H)-dione] |
| 19 | 0.0362 ± 0.0099 | > 1 | 1 | 0.298 ± 0.052 |  | 0.981 ± 0.116 |  | 15.6 | > 10 | 3.74 |  |  | CCn1c(=O)c2c(nc3n2CCN(Cc2cc(F)cc(Cl)c2)C3)n(C)c1=O [Compound 14n, 8-(3-chloro-5-fluorobenzyl)-3-ethyl-1-methyl-6,7,8,9-tetrahydropyrazino[2,1-f]purine-2,4(1H,3H)-dione] |
| 25 | 0.054 ± 0.0091 | > 1 | 39 |  |  | 1.14 |  | > 1 | > 10 | 6.51 | 4.42 | 12 | CCn1c(=O)c2c(nc3n2CCN(Cc2ccc(Br)cc2)C3)n(CC)c1=O [Compound 15e, 8-(4-bromobenzyl)-1,3-diethyl-6,7,8,9-tetrahydropyrazino[2,1-f]purine-2,4(1H,3H)-dione] |
|  | 0.032 ± 0.0009 | > 1 | 12 | 0.156 ± 0.005 |  | 2 | 22 | 7.82 |  | > 10 |  |  | CCn1c(=O)c2c(nc3n2CCN(Cc2ccccc2F)C3)n(CC)c1=O [Compound 15a, 1,3-diethyl-8-(2-fluorobenzyl)-6,7,8,9-tetrahydropyrazino[2,1-f]purine-2,4(1H,3H)-dione] |
